The values that follow are results of earlier work, collected in patent US20030175210A1, “Individualization of therapy with anxiolitics” (McGill University, priority 2001, published 2003).

For this series the following is noted: in vivo.

On to `O=C1Nc2ccc(Cl)cc2C(c2ccccc2Cl)=NC1O` (stereo not shown) [Lorazepam], for which the half-life is 10 to 15 h.
